Laboratory results as given in patent publication US20170304177A1, “USE OF ISOSORBIDE ESTER AND N-ACYLATED AMINO ACID DERIVATIVES AS ANTI-AGEING AGENT FOR THE HUMAN SKIN” (SOCIETE D'EXPLOITATION DE PRODUITS POUR LES INDUSTRIES …, priority 2014, published 2017).

System: Normal human fibroblasts
Experiment: In vitro migration of normal human fibroblasts (Oris migration plates, mitomycin C pretreatment, 40 h incubation, Calcein AM labelling)
Assay type: cell-based
Conditions: for (Dmigr) mean migration distance of the cells: 40 h, mean ± SD of quadruplicates; for [(Dmigr) − (Dmigr)control]/(Dmigr)control, percentage of migratory effect relative to the control: vs FCS culture control
Text: The fibroblast migration test is a test commonly used in the cosmetics and pharmaceutical sector and is especially described in the international patent application published under the number WO 2010/056908 A1. It allows in vitro reproduction of the phenomenon of fibroblast migration; a decrease in the migratory capacities of the fibroblasts being reported as associated with aging of the skin (1) (4).
Normal human fibroblasts at the R5 passage were amplified in a T75 culture flask and then inoculated at 25 000 cells/well in specific culture plates. These plates are dedicated to migration (Oris™ from Platypus), integrating a central zone without initial deposition of cells (stoppers). After 96 hours of plate amplification and 2 hours before the treatment, all the wells were treated with mitomycin C (2 hours at 10 μg/ml), so as to stop the cell proliferation, and thus to observe only the migration phenomenon. The stoppers were removed, and the references, the products or standard medium for fibroblasts containing 2% fetal calf serum (FCS) were applied to the cells under 100 μl, and then incubated for 40 hours at 37° C. under 5% CO2. Each condition was performed in quadruplicate.
On conclusion of the incubation, the cells were labeled with Calcein AM (5 μM, 20 minutes at 37° C.), so as to visualize the viable cells by fluorescence (revelation of the cytoplasm). Photos were taken, after having inserted a black screen under the culture plates, so as to visualize only the zone where the cells were not deposited. Thus, only the cells which had migrated were photographed (×4 objective lens; with a ×0.7 reducer on the camera adapter). The mean migration distance of the cells (Dmigr) was measured with NIS-Elements-BR 3.0 (4 cells). The means and standard deviations of the distances were calculated on the quadruplicates. The percentages of migratory effect relative to the control, and also the statistics (Student test) were also calculated.

Epidermal Growth Factor (EGF) was tested, and the “(Dmigr) mean migration distance of the cells” value (EGF 10 ng/ml) was 203 ± 20 μm, the “[(Dmigr) − (Dmigr)control]/(Dmigr)control, percentage of migratory effect relative to the control” value (EGF 10 ng/ml) was “+21%” and the “(Dmigr) mean migration distance of the cells” value (EGF 50 ng/ml) was 212 ± 8 μm. The “[(Dmigr) − (Dmigr)control]/(Dmigr)control, percentage of migratory effect relative to the control” value (EGF 50 ng/ml) was “+26%” and the “Effect on migration distance of normal human fibroblasts (in words)” value (summary statement on Table 1, EGF at 10 and 50 ng/ml, compositions at 5 and 10 μg/ml) was “increase in the migration distance”.
